Measurements from publication PMC8552062, “Contributions of UDP-Glucuronosyltransferases to Human Hepatic and Intestinal Metabolism of Ticagrelor and Inhibition of UGTs and Cytochrome P450 Enzymes by Ticagrelor and its Glucuronidated Metabolite” (Frontiers in Pharmacology, 2021).

What was measured:
Type in all cases: in vitro ADME
CYP2C19 = target: T1, CYP2C19 (Homo sapiens, UniProt P33261); test: CYP2C19 inhibition in HLM ([S]-mephenytoin 4′-hydroxylase)
T1 construct: co-incubation ticagrelor-O-Glu with selective P450 probe substrates in HLM; tissue XenoTech LLC; host or cells: pooled human liver microsomes
Experimental: The potential inhibitory effects of ticagrelor-O-Glu on the activities of major CYPs, i.e., CYP2B6, CYP2C8, CYP2C9, CYP2C19, CYP2D6, and CYP3A4, were evaluated by co-incubation ticagrelor-O-Glu with selective P450 probe substrates in HLM. Each incubation mixture containing 0.2 mg/ml HLM, ticagrelor-O-Glu and respective substrate (the final substrate concentrations are close to or less than the Km values: 150 μM bupropion, 1.26 μM amodiaquine, 10 μM diclofenac, 20 μM mephenytoin, 20 μM dextromethorphan and 80 μM testosterone (in house data)) in potassium phosphate buffer (100 mM, pH 7.4) was pre-incubated at 37°C for 5 min. Then, NADPH (10 mM) was added to initiate the reaction. The final volume of the incubation mixture was 100 μl. After incubation at 37°C for specific time points, the reaction was terminated by the addition of 200 μl of ice-cold methanol solution with internal standards (diazepam and furafylline). Preliminary screening experiments with selected concentrations of ticagrelor-O-Glu (0, 1, 10, or 100 μM of the final concentration) were carried out to determine the inhibition potency. For those that produced approximately 50% inhibition of CYPs enzyme activities at a ticagrelor-O-Glu concentration between 1 and 100 μM, IC50 was further determined with various concentrations of ticagrelor-O-Glu (0, 1, 5, 10, 20, 50, and 100 μM). All the experiments were performed in triplicates. The supernatant was obtained after centrifugation at 14,000 rpm for 10 min and injected into LC-MS/MS for the analysis of the respective metabolites. The formation of respective metabolites was determined to reflect P450 isoform activities. The metabolites quantified for CYP2B6, CYP2C8, CYP2C9, CYP2C19, CYP2D6, and CYP3A4 were hydroxy bupropion, N-Desethyl amodiaquine, 4′-hydroxylation diclofenac, S-4-hydroxy mephenytoin, dextrorphan and 6β-hydroxy testosterone, respectively.
The percent inhibition relative to the control was calculated to indicate the UGTs or CYPs inhibition. […]

UGT1A3 = target: T2, UGT1A3 (Homo sapiens, UniProt P35503); test: Ticagrelor glucuronidation by recombinant human UGT1A3; set-up: purchased BD Gentest; host or cells: baculovirus-infected insect cells; settings: recombinant human UGT1A3, pH 7.4
T2 sequence (P35503 29-534): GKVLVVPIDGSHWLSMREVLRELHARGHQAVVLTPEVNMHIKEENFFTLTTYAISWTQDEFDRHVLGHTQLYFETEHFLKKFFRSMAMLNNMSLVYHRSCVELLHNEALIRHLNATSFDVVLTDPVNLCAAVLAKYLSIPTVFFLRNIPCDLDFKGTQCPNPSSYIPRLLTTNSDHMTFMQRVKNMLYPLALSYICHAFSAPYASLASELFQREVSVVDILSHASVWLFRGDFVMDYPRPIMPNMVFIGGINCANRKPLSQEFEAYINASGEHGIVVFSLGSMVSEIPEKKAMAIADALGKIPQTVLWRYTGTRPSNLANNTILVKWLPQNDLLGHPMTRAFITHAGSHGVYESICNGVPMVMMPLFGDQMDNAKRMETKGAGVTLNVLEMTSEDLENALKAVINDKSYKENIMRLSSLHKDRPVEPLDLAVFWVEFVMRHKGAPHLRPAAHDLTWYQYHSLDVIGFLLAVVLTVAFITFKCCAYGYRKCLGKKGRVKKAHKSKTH
Experimental: (§1) Ticagrelor glucuronidation was investigated in an in vitro incubation system by using HLM, HIM, and recombinant human UGTs. The incubation system consisted of enzyme sources (HLM, HIM, or human recombinant UGTs), various concentrations of ticagrelor (dissolved in 50% methanol, 1% v/v, 1, 2, 5, 10, 20, 50, 100, 200, 500 μM of final concentration), alamethicin (50 μg/mg protein), 5 mM MgCl2, 100 mM tris-HCL buffer (pH 7.4), and 5 mM UDPGA in a total volume of 100 μl. Alamethicin is a pore-forming polypeptide used to activate UGTs in HLM and HIM ([Fisher et al., 2000]). Preliminary studies were conducted to determine the optimal protein concentrations and incubation times. Linear conditions of ticagrelor-O-Glu formation from ticagrelor, i.e., HLM, 0.2 mg of protein/ml and 60 min, HIM, 0.2 mg of protein/ml and 60 min, and recombinant human UGTs, 0.2 mg of protein/ml and 60 min were selected. The incubation mixture without UDPGA was placed on ice for 15 min to activate UGT by alamethicin. […]
(§2) Kinetic analyses were performed using the mean values of triplicate determinations with either pooled HLM, HIM, or recombinant human UGTs. All data were analyzed by nonlinear regression analysis using the GraphPad Prism 6 (GraphPad Software Inc., CA, United States). […] Intrinsic clearance (CLint) was calculated by dividing Vmax by Km.

UGT1A8 = target: T3, UGT1A8 (Homo sapiens, UniProt Q9HAW9); test: Ticagrelor glucuronidation by recombinant human UGT1A8; settings: recombinant human UGT1A8, pH 7.4
T3 construct: purchased BD Gentest; host or cells: baculovirus-infected insect cells
Experimental: as §1, §2

[1] = target: T4, recombinant human UGT2B17 (Homo sapiens, UniProt O75795); test: Ticagrelor glucuronidation screen, recombinant human UGT2B17; settings: 10 μM ticagrelor
T4 construct: purchased BD Gentest; host or cells: baculovirus-infected insect cells
Experimental: as §1, with “alamethicin. After pre-incubation for 5 min at 37°C, the reactions were started by the addition of UDPGA. After another 60 min of incubation at 37°C, the reaction was terminated by adding 100 μl of acetonitrile containing internal standard (diazepam). The mixture vortexed for 2 min and then centrifuged at 14,000 rpm for 10 min at 4°C.” for “alamethicin.”

T1 sequence (P33261 whole entry): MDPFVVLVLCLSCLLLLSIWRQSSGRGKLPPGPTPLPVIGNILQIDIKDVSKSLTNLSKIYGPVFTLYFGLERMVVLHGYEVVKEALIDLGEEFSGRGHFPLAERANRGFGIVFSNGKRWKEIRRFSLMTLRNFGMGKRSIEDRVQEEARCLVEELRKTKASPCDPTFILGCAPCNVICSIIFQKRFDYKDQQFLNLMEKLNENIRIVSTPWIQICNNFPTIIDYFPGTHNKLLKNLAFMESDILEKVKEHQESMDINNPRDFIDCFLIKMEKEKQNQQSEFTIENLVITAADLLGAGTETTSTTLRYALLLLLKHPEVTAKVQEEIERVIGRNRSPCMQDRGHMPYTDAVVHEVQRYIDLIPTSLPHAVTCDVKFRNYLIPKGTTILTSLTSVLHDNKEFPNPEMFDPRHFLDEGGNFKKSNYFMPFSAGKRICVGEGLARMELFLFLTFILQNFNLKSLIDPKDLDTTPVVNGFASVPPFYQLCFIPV
T4 sequence (O75795 24-530): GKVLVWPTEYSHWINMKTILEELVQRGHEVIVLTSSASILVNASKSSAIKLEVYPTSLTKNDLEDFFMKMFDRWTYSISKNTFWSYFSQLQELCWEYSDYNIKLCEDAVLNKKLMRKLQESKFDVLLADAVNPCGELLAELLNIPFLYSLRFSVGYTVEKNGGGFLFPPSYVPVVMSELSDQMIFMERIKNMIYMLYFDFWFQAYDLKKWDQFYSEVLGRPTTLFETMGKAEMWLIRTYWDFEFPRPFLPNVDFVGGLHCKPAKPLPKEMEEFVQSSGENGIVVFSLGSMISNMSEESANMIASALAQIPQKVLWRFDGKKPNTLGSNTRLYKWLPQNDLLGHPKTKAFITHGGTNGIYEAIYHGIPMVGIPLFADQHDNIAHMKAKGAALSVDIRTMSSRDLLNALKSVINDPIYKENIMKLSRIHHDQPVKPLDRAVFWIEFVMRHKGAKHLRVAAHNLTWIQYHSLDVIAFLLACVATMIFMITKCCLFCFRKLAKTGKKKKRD
T3 sequence (Q9HAW9 26-530): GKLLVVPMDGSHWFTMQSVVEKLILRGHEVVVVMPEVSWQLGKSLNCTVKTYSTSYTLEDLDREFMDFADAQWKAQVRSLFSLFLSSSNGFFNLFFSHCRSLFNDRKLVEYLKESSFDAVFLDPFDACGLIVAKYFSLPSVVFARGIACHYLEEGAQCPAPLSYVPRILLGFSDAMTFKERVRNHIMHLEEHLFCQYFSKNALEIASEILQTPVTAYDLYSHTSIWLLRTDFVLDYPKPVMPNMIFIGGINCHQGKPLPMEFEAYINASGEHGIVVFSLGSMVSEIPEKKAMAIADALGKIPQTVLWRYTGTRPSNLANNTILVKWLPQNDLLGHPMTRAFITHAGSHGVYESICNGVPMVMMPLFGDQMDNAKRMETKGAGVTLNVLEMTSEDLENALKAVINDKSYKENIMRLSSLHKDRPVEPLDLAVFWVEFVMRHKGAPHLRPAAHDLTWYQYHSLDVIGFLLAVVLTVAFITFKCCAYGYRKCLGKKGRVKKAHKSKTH

| IC50 (CYP2C19; CYP2C19, [S]-mephenytoin 4′-hydroxylase, HLM 0.2 mg/ml) [µM] | inhibition at 10 μM (CYP2C19; human, human liver microsomes, pH 7.4, probe mephenytoin (20 μM), S-4-hydroxy mephenytoin formation, HLM, 10 μM ticagrelor-O-Glu, read-out: inhibition of CYP2C19 enzyme activity) [%] | inhibition at 100 µM (CYP2C19; human, human liver microsomes, pH 7.4, probe mephenytoin (20 μM), S-4-hydroxy mephenytoin formation, HLM, 100 μM ticagrelor-O-Glu, read-out: inhibition of CYP2C19 enzyme activity) [%] | microsomal CLint (UGT1A3) [µL/min/mg] | microsomal CLint (UGT1A8) [µL/min/mg] | glucuronidation activity for ticagrelor [1] | Structure (SMILES) |
| --- | --- | --- | --- | --- | --- | --- |
| 18.8 | 32.7 | 83.6 |  |  |  | CCCSc1nc(N[C@@H]2C[C@H]2c2ccc(F)c(F)c2)c2nnn([C@@H]3C[C@H](OCCO[C@@H]4O[C@H](C(=O)O)[C@@H](O)[C@H](O)[C@H]4O)[C@@H](O)[C@H]3O)c2n1 [Ticagrelor-O-Glu, ticagrelor-O-glucuronide] |
|  |  |  | 0.04 | 0.01 | no glucuronidation activities | CCCSc1nc(N[C@@H]2C[C@H]2c2ccc(F)c(F)c2)c2nnn([C@@H]3C[C@H](OCCO)[C@@H](O)[C@H]3O)c2n1 [Ticagrelor] |
